Data: patent US7256198B2, “Pyrimidoindolones and methods for using same” (Wyeth, priority 2004, dated 2007)
Counter-ions that a name gives are not always drawn.

Legend:
recombinant caspase 3 = biological target: T1, recombinant caspase 3 (Homo sapiens, UniProt P42574); test: Caspase 3 Inhibition Assay (Ac-DEVD-AFC fluorogenic substrate cleavage); assay type: biochemical; conditions: pH 7.2, 23° C.; for IC50: recombinant caspase 3 0.25 nM, Ac-DEVD-AFC 25 μM; for inhibition at 50 µM: @ 50 μM compound, recombinant caspase 3, Ac-DEVD-AFC 25 μM, read-out: percent inhibition at the highest compound concentration
T1 construct: His tag (C); made in house; host or cells: E. coli
T1 sequence (P42574 29-175 limits assumed): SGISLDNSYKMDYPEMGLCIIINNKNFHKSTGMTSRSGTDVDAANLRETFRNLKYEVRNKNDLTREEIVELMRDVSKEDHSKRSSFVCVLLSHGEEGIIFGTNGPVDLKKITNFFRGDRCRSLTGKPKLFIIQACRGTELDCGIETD
T1 sequence (P42574 176-277 limits assumed): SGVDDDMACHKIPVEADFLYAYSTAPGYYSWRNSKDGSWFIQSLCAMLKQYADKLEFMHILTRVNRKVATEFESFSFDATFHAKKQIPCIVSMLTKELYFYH
Description: Caspase 3 was expressed intracellularly in E. coli with a c-terminal His tag. Fermentation was performed at 25° C. in a B. Braun Biotech Biostat C 10 liter bioreactor vessel. The culture was collected in IL bottles and centrifuged in Komspin KA-7.1000 rotors at approximately 8000 RCF (Relative Centrifugal Force). The cell pellets were re-suspended in 20 mM Tris pH 8.0, 500 mM NaCl, and 5 mM imidazole. The cell suspension was disrupted by passing 5 times through a microfluidizer Model 110Y (Microfluidics Corp, Newton, Mass). After centrifugation (13 kg, 30 min at 4 C), the supernatant was applied to a column of Nickle-NTA agarose. The Caspase 3 was eluted with a gradient of 5 mM to 150 mM imidazole in the above buffer. Fractions containing Caspase 3 were pooled and concentrated with a Millipore Ultrafree filtration device. The concentrated Caspase 3 solution was loaded unto a TSK gel G3000sw column (Tosoh Bioseph LLC), equilibrated with a buffer of 20 mM PIPES pH 7.2, 100 mM NaCl, 1 mM EDTA & 5 mM Cysteine. Fractions containing Caspase 3 were pooled and concentrated. Sometimes CHAPS was added to 0.1% and sucrose to 10% into the protein sample.
Caspase 3 was assayed at 23° C. (room temp) in 96-well plates using the internally quenched tetrapeptide substrate N-acetyl-aspartyl-glutamyl-valyl-aspartate-7-amino-4-trifluoromethyl coumarin (Ac-DEVD-AFC purchased from Biomol). The assays are conducted at pH 7.2 in a buffered system containing 20 mM PIPES, 100 mM NaCl, 1 mM EDTA, 0.1% CHAPS, 10% sucrose and 5 mM L-cysteine. […] A steady state rate of substrate cleavage is obtained for analysis.
The progress curves generated were fitted by computer to equation 1 to generate an IC50 value. Equation 1: y=Bmax*(1−(x^n/(K^n+x^n))), where Bmax is rate in the absence of inhibitor.

melting point | IC50 (recombinant caspase 3) | inhibition at 50 µM (recombinant caspase 3) | SMILES
73 to 88 °C (dec.) |  |  | CC1(C)CN=C2C(=O)c3cc(S(=O)(=O)N4CCC[C@H]4COc4ccccc4)ccc3N2C1
152 °C |  |  | COc1ccc2c(c1)C(=O)C1=NCCCN12 (hydrate or solvate) [Example 11, 8-Methoxy-3,4-dihydropyrimido[1,2-a]indol-10(2H)-one]
127 to 130 °C |  |  | COC[C@@H]1CCCN1S(=O)(=O)c1cc2c(cc1Cl)N1CCCN=C1C2=O (hydrate or solvate) [Example 5, 7-Chloro-8-{[(2S)-2-(methoxymethyl)pyrrolidin-1-yl-]sulfonyl}-3,4-dihydropyrimido[1,2-a]indol-10(2H)-one]
152 to 165 °C |  |  | O=C1C2=NCCCN2c2cc(Cl)c([N+](=O)[O-])cc21 (hydrate or solvate) [Example 15, 7-Chloro-8-nitro-3,4-dihydropyrimido[1,2-a]indol-10(2H)-one]
171 to 172 °C | 0.027 µM |  | COC[C@@H]1CCCN1S(=O)(=O)c1ccc2c(c1)C(=O)C1=NCCCN12 [Example 1, 8-{[(2S)-2-(Methoxymethyl)pyrrolidin-1-yl]sulfonyl}-3,4-dihydropyrimido[1,2-a]indol-10(2H)-one]
152.5 to 153 °C | 0.015 µM |  | CC1CCN2C(=N1)C(=O)c1cc(S(=O)(=O)N3CCCC3)ccc12 (stereo not shown) [Example 87]
127 to 129 °C | 50 µM |  | CC1CCN=C2C(=O)c3cc(Br)ccc3N21 (stereo not shown) [Example 13, 8-Bromo-4-methyl-3,4-dihydropyrimido[1,2-a]indol-10(2H)-one]
169.8 to 170.8 °C | 0.016 µM |  | CC1(C)CN=C2C(=O)c3cc(S(=O)(=O)N4CCc5ccccc54)ccc3N2C1 [Example 32, 8-(2,3-Dihydro-1H-indol-1-ylsulfonyl)-3,3-dimethyl-3,4-dihydropyrimido[1,2-a}indol-10(2H)-one]
150 to 152 °C |  | 26% | O=C1C2=NCCCN2c2ccc(F)cc21 [Example 18, 8-Fluoro-3,4-dihydropyrimido[1,2-a]indol-10(2H)-one]
162.9 to 163.6 °C | 0.014 µM |  | O=C1C2=NCC3(CCCC3)CN2c2ccc(S(=O)(=O)N3CCC[C@H]3CN3CCOCC3)cc21 [Example 83, 8′-{[(2S)-2-(morpholin-4-ylmethyl)pyrrolidin-1-yl]sulfonyl}spiro[cyclopentane-1,3′-pyrimido[1,2-a]indol]-10′(2′H)-one]
163 to 165 °C |  |  | COC[C@@H]1CCCN1S(=O)(=O)c1ccc2c(c1)C(=O)C1=NCC(C)(C)CN12
171.2 to 171.9 °C |  |  | COC[C@@H]1CCCN1S(=O)(=O)c1ccc2c(c1)C(=O)C1=NCC3(CCCC3)CN12
163 to 164 °C |  |  | Cc1ccc2c(c1)C(=O)C1=NCCCN12 (hydrate or solvate) [Example 10, 8-Methyl-3,4-dihydropyrimido[1,2-a]indol-10(2H)-one]
91 to 96 °C (dec.) | 0.025 µM |  | CC1(C)CN=C2C(=O)c3cc(S(=O)(=O)N4CCC[C@H]4CO)ccc3N2C1 [Example 8, 8-{[(2S)-2-(Hydroxymethyl)pyrrolidin-1-yl]sulfonyl}-3,3-dimethyl-3,4-dihydropyrimido[1,2-a]indol-10(2H)-one]
178 to 184 °C |  |  | CC1(C)CN=C2C(=O)c3cc(C#N)ccc3N2C1 (hydrate or solvate) [Example 20, 3,3-Dimethyl-10-oxo-2,3,4,10-tetrahydropyrimido[1,2-a]indole-8-carbonitrile]
161 to 164 °C |  |  | COC[C@H]1CCCN1S(=O)(=O)c1ccc2c(c1)C(=O)C1=NCC(C)(C)CN12
153 to 154 °C |  |  | CC1(C)CN=C2C(=O)c3cc(Cl)ccc3N2C1 (hydrate or solvate) [Example 14, 8′-Chloro-3′,3′-dimethyl-3′,4′-dihydropyrimido[1,2-a]indol-10(2H)-one]
170 to 183 °C (dec.) | 1.27 µM |  | CNS(=O)(=O)c1ccc2c(c1)C(=O)C1=NCCCN12 [Example 7, N-Methyl-10-oxo-2,3,4,10-tetrahydropyrimido[1,2-a]indole-8-sulfonamide]
166 to 168 °C (dec.) |  | 72% | O=C1C2=NCCCN2c2ccc(Br)cc21 [Example 9, 8-Bromo-3,4-dihydropyrimido[1,2-a]indol-10(2H)-one]
200 to 201 °C | 0.009 µM |  | CC1(C)CN=C2C(=O)c3cc(S(=O)(=O)N4CCCC4)ccc3N2C1 [Example 12, 3,3-Dimethyl-8-(pyrrolidin-1-ylsulfonyl)-3,4-dihydropyrimido[1,2-a]indol-10(2H)-one]
> 270 °C |  |  | Nc1cc2c(cc1Cl)N1CCCN=C1C2=O [Example 16, 8-Amino-7-chloro-3,4-dihydropyrimido[1,2-a]indol-10(2H)-one]
265 °C (dec.) |  | 2% | O=C1C2=NCCCN2c2ccc(O)cc21 [Example 19, 8-Hydroxy-3,4-dihydropyrimido[1,2-a]indol-10(2H)-one]
173.4 to 175 °C | 0.555 µM |  | COC[C@@H]1Cc2ccccc2N1S(=O)(=O)c1ccc2c(c1)C(=O)C1=NCC(C)(C)CN12 [Example 33, 8-{[(2S)-2-(Methoxymethyl)-2,3-dihydro-1H-indol-1-yl]sulfonyl}-3,3-dimethyl-3,4-dihydropyrimido[1,2-a]indol-10(2H)-one]
159 to 160 °C |  |  | O=C1C2=NCCCN2c2ccc(S(=O)(=O)N3CCC[C@H]3COc3ccccc3)cc21 [Example 3]
155 to 168 °C |  |  | O=C(Nc1ccc2c(c1)C(=O)C1=NCCCN12)c1ccccc1 (as salt: trifluoroacetic acid salt) [Example 17, N-(10-Oxo-2,3,4,10-tetrahydropyrimido[1,2-a]indol-8-yl)benzamide trifluoroacetic acid salt]
 |  | 29% | CN1CCN(C(=O)c2ccc3c(c2)C(=O)C2=NCC(C)(C)CN23)CC1 [Example 81, 3,3-Dimethyl-8-[(4-methylpiperazin-1-yl)carbonyl]-3,4-dihydropyrimido[1,2-a]indol-10(2H)-one]
 | 1.21 µM |  | CC1(C)CN=C2C(=O)c3cc(S(=O)(=O)N4c5ccccc5C[C@H]4COc4ccccc4)ccc3N2C1 [Example 34, 3,3-Dimethyl-8-{[(2S)-2-(phenoxymethyl)-2,3-dihydro-1H-indol-1-yl]sulfonyl}-3,4-dihydropyrimido[1,2-a]indol-10(2H)-one]
 |  | 37% | CC1(C)CN=C2C(=O)c3cc(C(=O)N4CCCC4)ccc3N2C1 [Example 78, 3,3-Dimethyl-8-(pyrrolidin-1-ylcarbonyl)-3,4-dihydropyrimido[1,2-a]indol-10(2H)-one]
